This is an account of results in patent publication US10736829B2, “Use of certain hydroxybenzoic acid amides for masking unpleasant taste impressions” (SYMRISE AG, priority 2015, dated 2020).

Common to all, as to assay type: in vivo
Test [1] is described as follows: Masking of the bitter taste of peptides, panel of experts (n=15), randomized duo-tests: Trp-Trp-Trp. Conditions: for Bitter taste peptide solution + 100 ppm compound: Trp-Trp-Trp 0.01% (w/v) in water, scale 0 to 10; for Reduction of bitterness (%): Trp-Trp-Trp 0.01% (w/v), 100 ppm compound, negative = less bitter. The protocol:
(§1) The masking effect of 2,4-Dihydroxy-N-[(4-hydroxy-3-methoxy-phenyl)methyl]benzamide (compound 1) and N-[(4-hydroxy-3-methoxy-phenyl)methyl]-2,4-dimethoxy-benzamide (compound 5) on the bitter taste of peptides was examined in a panel of experts (n=15) in randomized duo-tests. Therefore, solutions of bitter peptides in water with or without the addition of the exemplary substances were tasted and the perceived bitter taste was evaluated on a scale from 0 (not bitter) to 10 (extremely bitter).

A short description of test [2]: Masking of the bitter taste of peptides, panel of experts (n=15), randomized duo-tests: Arg-Pro. Conditions: for Bitter taste peptide solution + 100 ppm compound: Arg-Pro 0.1% (w/v) in water, scale 0 (not bitter) to 10 (extremely bitter); for Reduction of bitterness (%): Arg-Pro 0.1% (w/v), 100 ppm compound, negative = less bitter. The protocol: as §1
Test [3] is described as follows: Masking of the bitter taste of peptides, panel of experts (n=15), randomized duo-tests: Tyr-Pro-Phe-Pro. Conditions: for Bitter taste peptide solution + 100 ppm compound: Tyr-Pro-Phe-Pro 0.1% (w/v) in water, scale 0 to 10; for Reduction of bitterness (%): Tyr-Pro-Phe-Pro 0.1% (w/v), 100 ppm compound, negative = less bitter. Here is the method: as §1
A short description of test [4]: Masking of the bitter taste of peptides, panel of experts (n=15), randomized duo-tests: Glu-Leu-Leu (comparative example). Conditions: for Reduction of bitterness (%): Glu-Leu-Leu 0.2% (w/v) (comparative peptide), 100 ppm compound, negative = less bitter; for Bitter taste peptide solution + 100 ppm compound: Glu-Leu-Leu 0.2% (w/v) in water (comparative peptide), scale 0 to 10. The protocol: as §1

A short description of test [5]: Masking of the bitter taste of peptides, panel of experts (n=15), randomized duo-tests: Leu-Trp (comparative example). Conditions: for Reduction of bitterness (%): Leu-Trp 0.2% (w/v) (comparative peptide), 100 ppm compound, negative = less bitter; for Bitter taste peptide solution + 100 ppm compound: Leu-Trp 0.2% (w/v) in water (comparative peptide), scale 0 to 10. Here is the method: as §1

Test [6] is described as follows: Masking of the bitterness of a mixture of bitter amino acids, panel of experts (n=13), randomized duo-test with nose clip. Conditions: 100 ppm sample; for Reduction of bitterness in % compared to the mixture of amino acids: negative = less bitter, positive = more bitter; for Bitter taste amino acid mixture + sample: scale 0 [not bitter] to 10 [extremely bitter], n=13. The protocol:
The masking effect of hydroxybenzoic acid amides (compounds 1-4) to be preferably used according to the invention as well as a comparative substance (compound 5) on a mixture of bitter amino acids (2 g/l L-Isoleucine; 3.5 g/l L-Leucine; 1 g/l L-Phenylalanine; 0.7 g/l L-Tryptophan in water) was evaluated by an panel of experts (n=13) (Evaluation 0 [not bitter] up to 10 [extremely bitter]). The tasting was performed with a nose clip, to exclude olfactory influences, and in a randomized duo-test. The bitterness of the mixture of amino acids was evaluated by the panel by 4.98±0,31 on a scale from 0 to 10.

A short description of test [7]: Masking of the bitter taste of peptides. Conditions: 100 ppm; compound 1: plurality of peptides, except Leu-Trp and Glu-Leu-Leu. The protocol: as §1
Test [8] can be described thus: Masking of the bitter taste of whey protein hydrolysate solution, panel of experts (n=8), randomized duo-tests. Conditions: base 3% (w/v) whey protein hydrolysate in water; 100 ppm compound 1; aroma 1.6% (w/v) in the combination. Here is the method:
The bitter masking effect of 2,4-dihydroxy-N-[(4-hydroxy-3-methoxy-phenyl)methyl]benzamide (compound 1) on the bitter taste of whey protein hydrolysate was tested in a panel of experts [n=8] for a solution of 3% (w/v) of a commercially available whey protein hydrolysate (BioZate 3 of the company Davisco) in randomized duo-tests. The perceived bitter taste was evaluated on a scale from 0 [not bitter] to 10 [extremely bitter]. For comparison, a combination of compound 1 with a usual bitter masking aroma was tested, to examine possible additive effects.

As to `COc1ccc(C(=O)NCc2ccc(O)c(OC)c2)c(OC)c1` [compound 5, N-[(4-hydroxy-3-methoxy-phenyl)methyl]-2,4-dimethoxy-benzamide, reference compound], the “Bitter taste peptide solution + 100 ppm compound” value was found to be 6.40 in test [1]; 2.05 in test [2]; 4.68 in test [3]; 5.6 in test [4]; 7.1 in test [5]. The “Reduction of bitterness (%)” value in test [1] is reported as −1.08%; in test [2], 10.81%; in test [3] it was 4.46%; in test [4] it was 5.66%; in test [5], 4.41%. The “Reduction of bitterness in % compared to the mixture of amino acids” value (shortened to “Reduction of bitterness in %”) in test [6] stood at 22.8%. Also, the “Bitter taste amino acid mixture + sample” value in test [6] came out at 6.86. Moreover, in test [7], the “Effect on the bitterness of the peptides (in words)” value was “not able to achieve a reduction of the bitterness”.

For `COc1cc(CNC(=O)c2ccc(O)cc2O)ccc1O` [compound 1, 2,4-Dihydroxy-N-[(4-hydroxy-3-methoxy-phenyl)methyl]benzamide], the “Reduction of the bitter taste [%]” value in test [8] was −24.5%. Moreover, the “Bitter taste peptide solution + 100 ppm compound” value in test [1] is recorded as 5.35; in test [2], 1.47; in test [3], 3.43; in test [4] it was 5.1; in test [5] it was 6.5. Moreover, the “Reduction of bitterness (%)” value is −17.4% in test [1]; −20.9% in test [2]; −23.3% in test [3]; −3.77% in test [4]; −4% in test [5]. The “Reduction of bitterness in %” value in test [6] is −25.9%. The “Bitter taste amino acid mixture + sample” value in test [6] was 3.90. Moreover, in test [7], the “Effect on the bitterness of the peptides (in words)” value was “clear reduction of the bitterness”.

As to `COc1cc(CNC(=O)c2ccccc2O)ccc1O` [compound 4, 2-Hydroxy-N-[(4-hydroxy-3-methoxy-phenyl)methyl]benzamide], in test [6], the “Reduction of bitterness in %” value is recorded as −7.7% and the “Bitter taste amino acid mixture + sample” value was determined as 4.74.

`COc1cc(Cn2c(=O)oc3cc(O)cc(O)c3c2=O)ccc1O` [compound 2, 5,7-Dihydroxy-3-[(4-hydroxy-3-methoxy-phenyl)methyl]-1,3-benzoxazin-2,4-dione]: in test [6], the “Reduction of bitterness in %” value is given as −30.3% and the “Bitter taste amino acid mixture + sample” value is listed as 3.20.

`COc1cc(CNC(=O)c2ccc(O)cc2)ccc1O` [compound 3, 4-Hydroxy-N-[(4-hydroxy-3-methoxy-phenyl)methyl]benzamide]: in test [6], the “Reduction of bitterness in %” value is reported as −14.1% and the “Bitter taste amino acid mixture + sample” value stood at 4.11.
